Laboratory results from patent publication US7572762B1, “Materials and methods relating to the induction of apoptosis in target cells” (University of Dundee, priority 1998, dated 2009).

Legend:
[1] = test system: Saos-2::p53^teti cells; experiment: FACS analysis of osteosarcoma cells with tetracycline-inducible p53; type: cell-based, human
[2] = test system: 293 cells (transformed kidney epithelial cells); experiment: FACS (propidium iodide) analysis of apoptosis, 293 cells; type: cell-based, human; parameters: cell population induced to apoptose: dose or concentration left out as unconfirmed
[3] = test system: control B lymphoid (Daudi) cell line; experiment: FACS analysis of control B lymphoid cells; type: cell-based; conditions: for apoptotic (sub-G1) cells: 48 hours, untreated basal apoptosis approximately 50%; for effect on control B cells: rimcazole 0.1 mM, 0.01 mM, 0.001 mM (FIG. 11c), haloperidol not shown
[4] = test system: p53 null lung carcinoma (H1299) cells; experiment: FACS analysis of apoptosis and cell cycle, H1299 cells; type: cell-based, human
From the text: FIG. 8 illustrates a representative FACS (fluorescence activated cell sorting) profile obtained from the experiment indicated; horizontal axis denote DNA content of the cells and the vertical axis the numbers of cells that have a particular DNA content. Apoptotic cells have a subnormal DNA content and are represented as a peak to the extreme left of the profile (sub-G1); viable cells are represented in G1 and G2/M peaks which correspond to these phases of the cell cycle. Where percentages are provided, these indicate cells in sub-G1, G1 or G2/M phases, as indicated, as a percent of the total cell population. In all cases, the existence of apoptotic cells was confirmed by additional means such as microscopic examination.
Bar charts show quantitative data obtained from representative FACS analyses for the experiments indicated. In all cases, numbers of cells that are apoptotic (sub-G1), as a percentage of the total cell population, are depicted by diagonal-hatched bars; numbers of cells that are viable and in G1 (G1/S) phase of the cell cycle, as a percentage of the total cell population, are depicted by stippled bars; viable cells in G2/M phase of the cell cycle are depicted by horizontal-hatched bars.
The experiments described in the examples were performed using methods well-known to those skilled in the art and documented in standard text books in the field (e.g. Chapters 4 and 5, Methods in Cell Biology Vol 46 editors L. M. Schwartz and B. A. Osborne, Academic Press Ltd, London 1995 provides inter alia details on detection of apoptosis and cell division cycle arrest by FACS).

[5] = test system: L428 Hodgkins lymphoma cells; experiment: FACS analysis of apoptosis and cell cycle, L428 cells; type: cell-based, human; conditions: 48 hours
[6] = test system: human colon carcinoma (HT29) cells; experiment: FACS analysis of apoptosis, HT29 cells; type: cell-based
[7] = test system: MDA MB 468 human breast carcinoma xenografts; experiment: Human breast carcinoma xenograft growth in athymic mice; type: in vivo; conditions: 10 mg/kg/day intraperitoneal, day 45; all or selected tumours
[8] = test system: wild-type Saos-2 cells; experiment: Wild-type Saos-2 cells lacking p53; type: cell-based, human; conditions: low dose rimcazole combined with doxycycline
[9] = test system: MDA MB 231 cells; experiment: FACS analysis of hormone unresponsive breast carcinoma cells; type: cell-based, human; conditions: rimcazole 0.001 mM, 48 hours
[10] = test system: MDA MB 468 cells; experiment: FACS analysis of hormone insensitive breast cancer cells; type: cell-based, human
[11] = test system: MCF7 cells; experiment: FACS analysis of hormone responsive breast carcinoma cells; type: cell-based, human; conditions: rimcazole 0.001 mM, 48 hours
[12] = test system: MCF 7::p53^val135 cells; experiment: Phase micrographs of MCF 7 cells with temperature sensitive p53; type: cell-based, human
[13] = mouse, in vivo
Experimental: All drugs were dissolved in sterile water for injection and frozen as ˜2 ml aliquots, except haloperidol which was stored as a powder at RT and made up fresh each day in 45% cyclodextrin. The mice were housed in filter boxes in Maximiser laminar flow cabinets and fed sterilized food and water. All procedures were carried out in class 1 laminar flow hoods using sterile equipment and reagents. The mice were dosed daily by an intraperitoneal route (combined therapies dosed simultaneously) and body weights and tumour measurements recorded at frequent intervals.

C[C@H]1c2cccc(O)c2C(=O)C2=C(O)[C@]3(O)C(=O)C(C(N)=O)=C(O)[C@@H](N(C)C)[C@@H]3[C@@H](O)[C@@H]21 [doxycycline]
cells undergoing apoptosis, % of total population ([1]; low dose doxycycline alone): 4%

Oc1ccc2c3c1O[C@H]1c4[nH]c5ccccc5c4C[C@@]4(O)[C@@H](C2)N(CC2CC2)CC[C@]314 [naltrindole]
induction of death [2]: fails to induce death | induction of sub-G1 (apoptotic) cells [2]: marked induction | apoptotic (sub-G1) cells [3]: approximately 50% | G2/M cell cycle arrest [4]: appearance of a G2/M peak | induction of apoptosis [4]: marked induction of apoptosis | apoptosis induction ([5]; 10^−4M): majority of the cell population | apoptosis induction ([5]; 10^−5M): substantial amount of apoptosis | mitotic arrest (G2/M cells) ([5]; 10^−5M): increase in percentage of G2/M cells

COc1ccc2c(c1OC)C(=O)O[C@@H]2[C@H]1c2c(cc3c(c2OC)OCO3)CCN1C (relative stereo) [noscapine, (S-(R*,S*))-6,7-Dimethoxy-3-(5,6,7,8-tetrahydro-4-methoxy-6-methyl-1,3-dioxolo(4,5-g)isoquinolin-5-yl)-1(3H)-Isobenzofuranone]
apoptotic (sub-G1) cells [3]: approximately 50% | apoptotic cells, % of total cell population ([4]; 10^−4M combined with TNF 5 ng/ml): 74% | apoptotic cells ([4]; 10^−4M, 48 hours, alone): 39% | apoptosis, % of cell population ([6]; 10^−4M on its own): 67% | apoptosis ([6]; 10^−4M with TNF added): additional increase | apoptosis induction ([5]; 10^−4M): majority of the cell population | apoptosis induction ([5]; 10^−5M): substantial amount of apoptosis | mitotic arrest (G2/M cells) ([5]; 10^−5M): increase in percentage of G2/M cells

C[C@@H]1CN(CCCn2c3ccccc3c3ccccc32)C[C@H](C)N1 [rimcazole, cis-9-[3-(3,5-Dimethyl-1-piperazinyl)propyl]-9H-carbazole]
tumour growth inhibition (tumour weights at excision) [7]: significant tumour growth inhibition | effect of combination on apoptosis [8]: no effect | apoptotic cells, % of total cell population [9]: 25% | proportion of G2/M cells [9]: 62% | apoptotic cells ([10]; 0.001 mM, approximately 48 hours): 16% | apoptosis, % of cell population ([10]; 0.01 millimoles per liter, approximately 48 hours): 79% | cells induced to apoptose ([10]; rimcazole 0.001 mM combined with cis-U50488 0.1 mM): 83% | apoptosis [11]: 6% | proportion of G2/M cells [11]: 32% | cell population induced to apoptose ([2]; rimcazole alone): 1% | cell population induced to apoptose ([2]; rimcazole in combination with transiently overexpressed p53): 75% | apoptosis (phase micrographs) ([12]; 32 degC (p53 wild-type conformation), e.g. 0.001 mM): marked induction of apoptosis | apoptosis (phase micrographs) ([12]; 37 degC): largely unaffected | apoptosis (phase micrographs) ([12]; 37 degC (p53 largely inactive), 0.1 mM): Apoptosis is induced | effect on control B cells [3]: unaffected | cell population induced to apoptose ([1]; rimcazole 100 nM alone): approximately 5% | apoptotic cells ([1]; rimcazole 100 nM combined with doxycycline 0.02 μg/ml): 85% | apoptosis ([4]; rimcazole 0.01 mM in combination with trans-U50488 0.1 mM): 67% | apoptosis, % of cells ([4]; sublethal dose alone): 4% | apoptosis, % of cells ([4]; sublethal dose of rimcazole with sublethal dose of TNF): 61%

O=C(CCCN1CCC(O)(c2ccc(Cl)cc2)CC1)c1ccc(F)cc1 [haloperidol, 4(4-(4-chlorophenyl)-4-hydroxy-1-piperidinyl)-1-(4-fluorophenyl)-1-Butanone]
tumour growth inhibition (tumour weights at excision) [7]: growth inhibition | apoptotic cells ([2]; haloperidol 10^−5 M combined with transfected RelA(p65)): 47% | apoptotic cells ([2]; haloperidol 10^−5 M on its own): 2-3% | sub-G1 apoptotic cells, % of total cell population ([2]; haloperidol without IκB (FIG. 9c)): 58% | sub-G1 apoptotic cells, % of total cell population ([2]; non-degradable mutant IκB plasmid transfected prior to haloperidol): 5% | effect on control B cells [3]: unaffected | apoptosis ([4]; haloperidol 10^−5M alone): 4% | apoptosis ([4]; haloperidol 10^−5M combined with TNF): 59% | ill effects / toxicity in mice [13]: transient sleepiness

B1: proenkephalin: proenkephalin destined for the secretory pathway, overexpressed from transiently transfected plasmid DNA (protein, UniProt P01210 1-267, looked up)
chain: MARFLTLCTWLLLLGPGLLATVRAECSQDCATCSYRLVRPADINFLACVMECEGKLPSLKIWETCKELLQLSKPELPQDGTSTLRENSKPEESHLLAKRYGGFMKRYGGFMKKMDELYPMEPEEEANGSEILAKRYGGFMKKDAEEDDSLANSSDLLKELLETGDNRERSHHQDGSDNEEEVSKRYGGFMRGLKRSPQLEDEAKELQKRYGGFMRRVGRPEWWMDYQKRYGGFLKRFAEALPSDEEGESYSKEVPEMEKRYGGFMRF
modifications: full-length
notes: proenkephalin destined for the secretory pathway, overexpressed from transiently transfected plasmid DNA
induction of apoptosis ([2]; alone, 48 hours, TNF 5 ng/ml, proenkephalin 5 μg plasmid DNA (secretory) transfected): no induction of apoptosis | reduction in percentage of sub-G1 (apoptotic) cells ([2]; proenkephalin + TNF, co-transfection of 5 μg IκB plasmid): greater than 50% | percentage of apoptotic (sub-G1) cells ([2]; proenkephalin overexpressed in combination with TNF 5 ng/ml): marked increase
